{
  "source": "paper PMC5814754",
  "about": "“Quantitative, Wide-Spectrum Kinase Profiling in Live Cells for Assessing the Effect of Cellular ATP on Target Engagement” (Cell Chemical Biology, 2018)",
  "assay_in_all_cases": "NanoBRET single-dose fractional occupancy profiling of kinase/Nluc library in live HEK293 cells (Table S1)",
  "assay_type_in_all_cases": "binding",
  "design_in_all_cases": "receptor occupancy: dose or concentration left out as unconfirmed; Occupancy, % Replicate 1 / Occupancy, % Replicate 2: unit of the concentration uncertain",
  "key": {"[1]": {"molecular_target": "178 full-length kinases (Homo sapiens, UniProt Q00532)", "sequence (Q00532 whole entry)": "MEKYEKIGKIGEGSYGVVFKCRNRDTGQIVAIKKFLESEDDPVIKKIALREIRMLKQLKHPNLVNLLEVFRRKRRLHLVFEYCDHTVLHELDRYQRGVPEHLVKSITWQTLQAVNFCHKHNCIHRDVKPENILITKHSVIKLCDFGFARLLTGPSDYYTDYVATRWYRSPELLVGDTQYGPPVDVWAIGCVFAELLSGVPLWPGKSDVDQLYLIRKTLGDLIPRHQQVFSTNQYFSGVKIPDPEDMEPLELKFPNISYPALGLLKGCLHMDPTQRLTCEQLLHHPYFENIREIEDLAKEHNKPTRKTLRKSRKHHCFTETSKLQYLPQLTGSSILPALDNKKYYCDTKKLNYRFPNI", "conditions": "CDKL1, Nluc N, probe 1 at 0.1 (unit uncertain)"}, "[2]": {"molecular_target": "178 full-length kinases (Homo sapiens, UniProt Q9BVS4)", "sequence (Q9BVS4 whole entry)": "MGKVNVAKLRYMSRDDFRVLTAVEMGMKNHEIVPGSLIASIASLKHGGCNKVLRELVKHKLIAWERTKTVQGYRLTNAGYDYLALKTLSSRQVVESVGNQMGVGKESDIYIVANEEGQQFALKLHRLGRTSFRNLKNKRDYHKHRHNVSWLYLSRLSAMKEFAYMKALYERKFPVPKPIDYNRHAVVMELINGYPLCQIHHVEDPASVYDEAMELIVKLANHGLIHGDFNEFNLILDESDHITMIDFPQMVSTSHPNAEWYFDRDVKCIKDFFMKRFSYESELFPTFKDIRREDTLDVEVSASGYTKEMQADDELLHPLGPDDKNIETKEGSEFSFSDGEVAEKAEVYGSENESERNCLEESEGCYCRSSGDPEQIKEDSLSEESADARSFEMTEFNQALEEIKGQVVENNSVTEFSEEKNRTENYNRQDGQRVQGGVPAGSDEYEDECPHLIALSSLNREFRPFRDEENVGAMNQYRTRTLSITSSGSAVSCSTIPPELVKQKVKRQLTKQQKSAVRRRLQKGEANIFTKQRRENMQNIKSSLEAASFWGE", "conditions": "RIOK2, Nluc N, probe 5 at 1 (unit uncertain)"}, "[3]": {"molecular_target": "178 full-length kinases (Homo sapiens, UniProt Q02779)", "sequence (Q02779 whole entry)": "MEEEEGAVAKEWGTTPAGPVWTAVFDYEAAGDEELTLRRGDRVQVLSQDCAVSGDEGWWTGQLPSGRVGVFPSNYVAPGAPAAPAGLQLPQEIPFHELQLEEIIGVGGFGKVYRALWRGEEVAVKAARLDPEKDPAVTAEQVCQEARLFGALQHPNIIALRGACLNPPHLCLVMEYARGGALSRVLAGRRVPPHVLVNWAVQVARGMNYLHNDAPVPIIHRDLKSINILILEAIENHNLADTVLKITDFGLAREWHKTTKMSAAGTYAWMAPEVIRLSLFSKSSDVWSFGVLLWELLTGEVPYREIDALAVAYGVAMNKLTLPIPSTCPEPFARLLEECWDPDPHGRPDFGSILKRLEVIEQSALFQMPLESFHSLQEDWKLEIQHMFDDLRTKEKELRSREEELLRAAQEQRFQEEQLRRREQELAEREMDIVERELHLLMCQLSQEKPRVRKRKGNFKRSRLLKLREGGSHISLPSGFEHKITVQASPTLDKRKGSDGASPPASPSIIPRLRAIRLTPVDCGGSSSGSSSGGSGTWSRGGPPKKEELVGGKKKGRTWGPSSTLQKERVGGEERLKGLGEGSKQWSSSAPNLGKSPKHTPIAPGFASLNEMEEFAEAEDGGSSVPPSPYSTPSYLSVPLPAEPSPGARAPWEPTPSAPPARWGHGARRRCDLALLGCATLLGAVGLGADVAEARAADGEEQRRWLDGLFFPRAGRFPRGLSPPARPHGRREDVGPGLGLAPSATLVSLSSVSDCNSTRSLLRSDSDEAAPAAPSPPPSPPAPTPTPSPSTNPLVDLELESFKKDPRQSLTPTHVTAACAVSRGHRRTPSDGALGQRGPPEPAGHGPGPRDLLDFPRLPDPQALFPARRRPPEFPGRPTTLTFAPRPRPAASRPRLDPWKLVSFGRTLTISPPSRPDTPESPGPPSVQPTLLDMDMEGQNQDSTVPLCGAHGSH", "conditions": "MAP3K10, Nluc N, probe 5 at 1 (unit uncertain)"}, "[4]": {"molecular_target": "178 full-length kinases (Homo sapiens, UniProt O75676)", "conditions": "RPS6KA4 (NP_001287731), Nluc orientation N, probe 5 at 0.1 (unit uncertain); replicate 1"}, "[5]": {"molecular_target": "178 full-length kinases (Homo sapiens, UniProt Q13237)", "conditions": "PRKG2, Nluc C, probe 5 at 1 (unit uncertain)"}, "[6]": {"molecular_target": "178 full-length kinases (Homo sapiens, UniProt Q08881)", "conditions": "ITK, Nluc N, probe 5 at 0.01 (unit uncertain)"}, "[7]": {"molecular_target": "178 full-length kinases (Homo sapiens, UniProt O96013)", "conditions": "PAK4, Nluc C, probe 5 at 1 (unit uncertain)"}, "[8]": {"molecular_target": "178 full-length kinases (Homo sapiens, UniProt Q15831)", "sequence (Q15831 whole entry)": "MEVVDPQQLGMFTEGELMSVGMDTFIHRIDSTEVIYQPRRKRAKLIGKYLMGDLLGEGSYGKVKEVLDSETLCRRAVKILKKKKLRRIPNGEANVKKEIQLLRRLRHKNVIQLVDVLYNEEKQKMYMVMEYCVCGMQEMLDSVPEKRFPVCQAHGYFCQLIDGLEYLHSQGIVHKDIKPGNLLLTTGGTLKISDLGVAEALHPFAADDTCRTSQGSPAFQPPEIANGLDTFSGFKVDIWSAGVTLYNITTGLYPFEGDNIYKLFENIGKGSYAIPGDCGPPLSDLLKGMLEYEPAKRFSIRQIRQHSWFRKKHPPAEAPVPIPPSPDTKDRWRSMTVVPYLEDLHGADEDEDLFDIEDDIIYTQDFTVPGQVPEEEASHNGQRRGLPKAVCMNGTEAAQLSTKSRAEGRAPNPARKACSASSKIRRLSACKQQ", "conditions": "STK11 (NP_000446), Nluc orientation N, probe 5 at 1 (unit uncertain)"}, "[9]": {"molecular_target": "178 full-length kinases (Homo sapiens, UniProt Q99640)", "conditions": "PKMYT1, Nluc C, probe 2 at 1 (unit uncertain)"}, "[10]": {"molecular_target": "178 full-length kinases (Homo sapiens, UniProt P07333)", "conditions": "CSF1R, Nluc C, probe 6"}, "[11]": {"molecular_target": "178 full-length kinases (Homo sapiens, UniProt Q12866)", "conditions": "MERTK, Nluc C; read-out: Occupancy, % Replicate 2"}, "[12]": {"molecular_target": "178 full-length kinases (Homo sapiens, UniProt P30291)", "sequence (P30291 whole entry)": "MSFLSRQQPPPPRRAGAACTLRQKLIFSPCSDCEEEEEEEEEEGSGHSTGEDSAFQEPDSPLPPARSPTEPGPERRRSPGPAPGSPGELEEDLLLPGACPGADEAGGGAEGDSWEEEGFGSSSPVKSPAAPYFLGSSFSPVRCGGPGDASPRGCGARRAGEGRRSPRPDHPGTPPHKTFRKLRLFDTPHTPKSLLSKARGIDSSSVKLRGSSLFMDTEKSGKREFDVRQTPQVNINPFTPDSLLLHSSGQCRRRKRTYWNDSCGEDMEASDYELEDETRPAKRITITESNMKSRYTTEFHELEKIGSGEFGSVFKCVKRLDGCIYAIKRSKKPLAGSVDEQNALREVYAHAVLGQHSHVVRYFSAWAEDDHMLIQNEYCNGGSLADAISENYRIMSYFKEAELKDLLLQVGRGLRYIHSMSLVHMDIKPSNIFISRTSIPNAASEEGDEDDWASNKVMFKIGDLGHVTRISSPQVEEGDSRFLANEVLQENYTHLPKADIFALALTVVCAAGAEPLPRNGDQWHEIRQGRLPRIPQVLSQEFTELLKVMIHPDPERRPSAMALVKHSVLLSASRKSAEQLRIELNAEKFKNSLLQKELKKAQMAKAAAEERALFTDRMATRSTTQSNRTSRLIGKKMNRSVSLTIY", "conditions": "WEE1 (NP_003381), Nluc orientation C, probe 5 at 0.05 (unit uncertain)"}, "[13]": {"molecular_target": "178 full-length kinases (Homo sapiens, UniProt P29597)", "conditions": "TYK2 (NP_003322), Nluc orientation C, probe 5 at 1 (unit uncertain); replicate 1"}, "[14]": {"molecular_target": "178 full-length kinases (Homo sapiens, UniProt P54646)", "sequence (P54646 whole entry)": "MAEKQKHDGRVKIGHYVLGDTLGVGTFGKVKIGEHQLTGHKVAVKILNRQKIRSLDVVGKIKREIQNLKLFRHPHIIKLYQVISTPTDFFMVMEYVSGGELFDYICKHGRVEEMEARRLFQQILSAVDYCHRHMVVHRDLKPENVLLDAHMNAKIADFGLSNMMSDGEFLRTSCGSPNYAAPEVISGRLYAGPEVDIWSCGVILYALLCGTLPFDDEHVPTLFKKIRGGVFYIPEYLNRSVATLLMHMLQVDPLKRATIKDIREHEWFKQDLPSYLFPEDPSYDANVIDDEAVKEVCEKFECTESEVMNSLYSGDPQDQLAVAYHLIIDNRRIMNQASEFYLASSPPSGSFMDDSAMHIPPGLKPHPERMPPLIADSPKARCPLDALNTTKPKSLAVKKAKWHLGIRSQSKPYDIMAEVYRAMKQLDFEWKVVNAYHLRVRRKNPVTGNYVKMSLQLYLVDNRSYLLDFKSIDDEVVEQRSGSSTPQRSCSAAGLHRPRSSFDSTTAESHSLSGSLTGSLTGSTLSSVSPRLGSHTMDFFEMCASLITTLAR", "conditions": "PRKAA2, Nluc N, probe 5 at 0.5 (unit uncertain)"}, "[15]": {"molecular_target": "178 full-length kinases (Homo sapiens, UniProt Q14680)", "conditions": "MELK, Nluc N, probe 5 at 1 (unit uncertain)"}, "[16]": {"molecular_target": "178 full-length kinases (Homo sapiens, UniProt Q96L34)", "conditions": "MARK4, Nluc N, probe 5 at 1 (unit uncertain)"}, "[17]": {"molecular_target": "178 full-length kinases (Homo sapiens, UniProt P53779)", "sequence (P53779 whole entry)": "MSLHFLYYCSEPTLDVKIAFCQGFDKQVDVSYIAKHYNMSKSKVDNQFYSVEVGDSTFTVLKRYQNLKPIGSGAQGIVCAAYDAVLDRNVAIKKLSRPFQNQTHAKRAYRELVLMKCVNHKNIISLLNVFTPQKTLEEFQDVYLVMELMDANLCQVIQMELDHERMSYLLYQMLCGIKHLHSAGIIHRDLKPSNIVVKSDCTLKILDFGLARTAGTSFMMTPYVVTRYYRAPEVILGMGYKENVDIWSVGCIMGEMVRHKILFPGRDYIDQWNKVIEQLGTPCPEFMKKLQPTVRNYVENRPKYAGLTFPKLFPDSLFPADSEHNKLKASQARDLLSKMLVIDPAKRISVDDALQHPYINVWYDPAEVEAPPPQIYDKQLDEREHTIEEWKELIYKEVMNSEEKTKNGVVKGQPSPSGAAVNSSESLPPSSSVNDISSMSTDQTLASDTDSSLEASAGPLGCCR", "conditions": "JNK3, Nluc C, probe 5 at 1 (unit uncertain)"}, "[18]": {"molecular_target": "178 full-length kinases (Homo sapiens, UniProt Q8IWQ3)", "conditions": "BRSK2, Nluc N, probe 5 at 0.5 (unit uncertain)"}, "[19]": {"molecular_target": "178 full-length kinases (Homo sapiens, UniProt Q02156)", "sequence (Q02156 whole entry)": "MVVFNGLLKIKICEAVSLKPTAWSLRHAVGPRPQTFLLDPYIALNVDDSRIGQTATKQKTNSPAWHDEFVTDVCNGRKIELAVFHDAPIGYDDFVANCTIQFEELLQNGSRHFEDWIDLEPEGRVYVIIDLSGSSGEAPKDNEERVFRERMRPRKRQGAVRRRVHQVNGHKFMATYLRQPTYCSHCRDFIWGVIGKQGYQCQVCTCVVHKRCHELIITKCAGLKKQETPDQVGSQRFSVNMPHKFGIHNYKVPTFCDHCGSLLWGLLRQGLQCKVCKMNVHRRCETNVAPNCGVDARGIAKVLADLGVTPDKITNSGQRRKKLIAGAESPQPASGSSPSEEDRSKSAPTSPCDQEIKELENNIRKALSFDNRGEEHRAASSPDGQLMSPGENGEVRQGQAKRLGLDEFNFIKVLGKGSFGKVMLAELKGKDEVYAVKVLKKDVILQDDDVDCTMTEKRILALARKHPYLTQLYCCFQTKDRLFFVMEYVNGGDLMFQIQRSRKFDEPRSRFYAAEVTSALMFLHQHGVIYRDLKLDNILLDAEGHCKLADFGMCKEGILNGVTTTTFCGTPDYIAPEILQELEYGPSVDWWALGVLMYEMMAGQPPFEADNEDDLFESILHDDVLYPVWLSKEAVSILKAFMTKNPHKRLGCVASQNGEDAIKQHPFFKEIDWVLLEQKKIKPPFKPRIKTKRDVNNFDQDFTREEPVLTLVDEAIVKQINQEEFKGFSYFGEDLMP", "conditions": "PRKCE, Nluc C, probe 5 at 1 (unit uncertain)"}},
  "note": "Like-named read-outs stand apart in the source and are kept apart here.",
  "data": [
    {"smiles": "C[C@@H](Oc1cc(-c2cnn(C3CCNCC3)c2)cnc1N)c1c(Cl)ccc(F)c1Cl", "note": "[Crizotinib]", "values": [
      {"measurement": "Occupancy, % Replicate 1", "setting": "[1]", "value": "No Binding"},
      {"measurement": "Occupancy, % Replicate 2", "setting": "[1]", "value": "No Binding"},
      {"measurement": "Occupancy, % Replicate 1", "setting": "[2]", "value": "No Binding"},
      {"measurement": "Occupancy, % Replicate 2", "setting": "[2]", "value": "No Binding"},
      {"measurement": "Occupancy, % Replicate 1", "setting": "[3]", "value": "No Binding"},
      {"measurement": "Occupancy, % Replicate 2", "setting": "[3]", "value": "No Binding"},
      {"measurement": "Occupancy, % Replicate 1", "setting": "[4]", "value": "No Binding"},
      {"measurement": "Occupancy, % Replicate 2", "setting": "[5]", "value": "No Binding"},
      {"measurement": "Occupancy, % Replicate 1", "setting": "[6]", "value": "No Binding"},
      {"measurement": "Occupancy, % Replicate 2", "setting": "[7]", "value": "No Binding"},
      {"measurement": "Occupancy, % Replicate 1", "setting": "[8]; replicate 1", "value": "No Binding"},
      {"measurement": "Occupancy, % Replicate 2", "setting": "[8]; replicate 2", "value": "No Binding"},
      {"measurement": "Occupancy, % Replicate 1", "setting": "[9]", "value": "No Binding"},
      {"measurement": "receptor occupancy", "setting": "[10]; read-out: Occupancy, % Replicate 1", "value": 12, "unit": "%"},
      {"measurement": "receptor occupancy", "setting": "[10]; read-out: Occupancy, % Replicate 2", "value": 12, "unit": "%"},
      {"measurement": "receptor occupancy", "setting": "[11]", "value": 81, "unit": "%"},
      {"measurement": "Occupancy, % Replicate 1", "setting": "[12]; replicate 1", "value": "No Binding"},
      {"measurement": "Occupancy, % Replicate 2", "setting": "[12]; replicate 2", "value": "No Binding"},
      {"measurement": "Occupancy, % Replicate 1", "setting": "[13]", "value": "No Binding"},
      {"measurement": "Occupancy, % Replicate 1", "setting": "[14]", "value": "No Binding"},
      {"measurement": "Occupancy, % Replicate 2", "setting": "[14]", "value": "No Binding"},
      {"measurement": "Occupancy, % Replicate 2", "setting": "[15]", "value": "No Binding"},
      {"measurement": "Occupancy, % Replicate 1", "setting": "[16]", "value": "No Binding"},
      {"measurement": "Occupancy, % Replicate 2", "setting": "[16]", "value": "No Binding"},
      {"measurement": "Occupancy, % Replicate 1", "setting": "[17]", "value": "No Binding"},
      {"measurement": "Occupancy, % Replicate 2", "setting": "[17]", "value": "No Binding"},
      {"measurement": "Occupancy, % Replicate 2", "setting": "[18]", "value": "No Binding"},
      {"measurement": "Occupancy, % Replicate 1", "setting": "[19]", "value": "No Binding"},
      {"measurement": "Occupancy, % Replicate 2", "setting": "[19]", "value": "No Binding"}
    ]}
  ]
}
